The values below come from PMC12752563, “Caffeic Acid Acts as a Potent Senomorphic and Alleviates Inflammation and Lung Fibrosis by Covalently Targeting Annexin A5 Protein in Mice” (Exploration, 2025).

The target of experiment [1] is T1, Annexin A5 (ANXA5) (Homo sapiens, UniProt P08758).
T1 construct: recombinant protein purified from E. coli; His-tag labelled for MST
T1 sequence (P08758 2-320): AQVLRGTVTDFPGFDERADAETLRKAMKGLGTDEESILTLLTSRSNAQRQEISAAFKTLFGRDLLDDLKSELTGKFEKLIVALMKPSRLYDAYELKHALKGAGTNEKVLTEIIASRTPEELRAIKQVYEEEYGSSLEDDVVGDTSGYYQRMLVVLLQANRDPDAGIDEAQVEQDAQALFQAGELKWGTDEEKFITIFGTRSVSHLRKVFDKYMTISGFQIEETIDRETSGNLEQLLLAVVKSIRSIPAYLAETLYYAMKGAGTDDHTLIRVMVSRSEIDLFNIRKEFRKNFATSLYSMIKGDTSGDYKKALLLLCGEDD
Briefly: in-gel fluorescence after click chemistry. To be noted: covalent; 12% SDS-PAGE. It is filed as binding.

The target in experiment [2] is T1, Annexin A5 (ANXA5). Briefly: microscale thermophoresis. It is filed as binding. For orientation: MST reads how a fluorescent partner responds to local heating, with and without ligand.

pKd: −log10 of the molar value.

Take `C#CCNC(=O)/C=C/c1ccc(O)c(O)c1` [CA probe]: on Annexin A5 (ANXA5) [1], the “in-gel fluorescence after click chemistry” value was “wild‐type ANXA5 could be labeled by CA‐probe”. By pKd is commonly meant the negative decadic logarithm of the Kd, by convention in mol/L. As to `O=C(O)/C=C/c1ccc(O)c(O)c1` [CA, caffeic acid], the pKd on Annexin A5 (ANXA5) [2] was 5.43.
